The source of these data is patent publication US20150038417A1, “GLP-1 Agonists” (Novo Nordisk A/S, priority 2011, published 2015).

The assay concerns Normal male Sprague Dawley rats. Kind of assay: Effect of liraglutide on alcohol consumption (two-bottle choice: water vs 10% alcoholic drink). It is filed as in vivo, rat. From the text:
Certain strains of rats are alcohol dependent and consume large amounts of alcohol if given the choice.
Normal male Sprague Dawley rats were housed individually and fed normal rat chow. Each rat had access to two drinking bottles, one of them containing water and one of them containing a 10% alcoholic drink (diluted Toffee liquor from ALDI®). The rats were acclimatised to the alcoholic drink for a least one week. Consumption of water and the alcoholic drink were continuously recorded on line using the BIOdaq food and water intake monitoring system http://www.bodaq.com/®.
Basal water and alcoholic drink consumption was recorded on a 24 h daily basis. After this had stabilised, consumption of water and alcoholic drink was recorded over a 24 h period. […] Water and alcohol consumption were recorded for 24 h after injection.

With “Liraglutide (HAEGTFTSDVSSYLEGQAAKEFIAWLVRGRG; chains of the INN, looked up)”, under “30 μg/kg liraglutide s.c., single dose, 24 h after injection, n=8, same group before dosing 25.6 ± 0.6 g, p < 0.001, paired t-test”, the “Accumulated fluid intake over 24 h, alcohol (10% alcoholic drink), after Liraglutide (Mean ± SEM)” value stood at 16.1 ± 1.3 g. Further, the “Effect on 24 h intake of alcoholic drink and water (in words)” value (30 μg/kg liraglutide s.c., before vs after administration) is “significantly and selectively reduced intake of alcoholic drink and not water”. For the same substance, the “Alcohol intake compared with vehicle treated rats (in words)” value (rats offered to choose between alcohol and water) was “significantly reduces the alcohol intake”.
